Read-outs that look alike come from different tables or passages of the source.
What was measured:
hCB1 = molecular target: T1, hCB1 (Homo sapiens, UniProt P21554); assay: Radioligand competition binding screen with [3H]-CP 55,940 on hCB1-expressing HEK membranes; conditions: for CB1 binding extent at 10 μM (%) (±SEM): 10 μM compound, displacement of 0.75 nM [3H]-CP 55,940; for CB2 selectivity over CB1 (in words): from CB1 binding at 10 μM versus CB2 affinity
T1 construct: expressed in transfected cells; host or cells: HEK (membranes)

hCB2 [1] = molecular target: T2, hCB2 (Homo sapiens, UniProt P34972); assay: Radioligand competition binding with [3H]-CP 55,940 on hCB2-expressing HEK membranes; conditions: for hCB2 displacement of [3H]-CP 55,940 in 10 μM screen (in words): 10 μM heterologous competition screen, cut-off 60%; for inhibition at 10 µM: 1 h, read-out: CB2 binding extent at 10 μM (%) (±SEM); for Reduction in hCB2 binding affinity compared to 15: compared to methylpiperazinyl-15; for Ki: heterologous competition vs [3H]-CP 55,940, read-out: CB2 pKi (±SEM) (converted)
T2 construct: expressed in transfected cells; host or cells: HEK Flp-in

HEK Flp-in wt cells = assay: CAMYEL cAMP assay in HEK Flp-in wt cells (non-hCB2-mediated effects); type: cell-based, human; conditions: for Non-hCB2-mediated effects on cAMP (in words): HEK Flp-in wt
hCB2 [2] = molecular target: T2, hCB2; assay: Comparison of efficacy/potency and operational-model bias analysis between hCB2 pathways, reference CP 55,940; type: cell-based; conditions: for Internalisation – pERK Bias factor / cAMP – internalisation Bias factor / cAMP – pERK Bias factor: 10^ΔΔlogR; for Internalisation – pERK ΔΔlogR (±SEM) / cAMP – internalisation ΔΔlogR (±SEM) / cAMP – pERK ΔΔlogR (±SEM): relative to reference ligand CP 55,940
hCB2 [3] = molecular target: T2, hCB2; assay: Real-time CAMYEL BRET cAMP assay, forskolin-stimulated HEK Flp-in hCB2 cells; type: cell-based; conditions: for logR [log(τ/KA)] (±SEM) cAMP: operational model transduction ratio; for EC50: 10 and 14 approximate (non-hCB2-mediated effects), read-out: cAMP (5 min) pEC50 (±SEM) (converted)
Description: Cellular cAMP levels were measured using a real-time BRET biosensor (CAMYEL) as previously described ([Cawston et al., 2013]). In brief, cells were seeded in 10 cm dishes one day prior to transfection. The medium was then replaced and cells transfected with 5 μg of pcDNA3L-His-CAMYEL (ATCC, Manassas, VA, United States) using linear PEI (MW 25 kDa; Polysciences, Warrington, PA, United States) with a DNA:PEI ratio of 1:6. Approximately 24 h after transfection, cells were trypsinised and re-plated in poly-D-lysine treated white 96-well plates (Corning), at a density of 5–6 × 10^4 cells per well. For experiments involving pertussis toxin (PTX; Sigma-Aldrich) pre-treatment, cells were seeded in half the usual volume of medium, and then ∼5 h later, 2× concentrated PTX or vehicle (50% glycerol, […] Tris–HCl pH 7.5, 10 mM glycine, 500 mM NaCl) were prepared in medium and added to the existing plating medium (giving rise to a final PTX concentration of 100 ng mL^-1). Approximately 24 h after plating (or 16–20 h after applying PTX/vehicle in experiments involving PTX treatment), cells were washed once with Hank’s Balanced Salt Solution (HBSS, Thermo Fisher Scientific, catalogue #14025-134), and then equilibrated for 30 min in HBSS supplemented with 1 mg mL^-1 BSA. Coelenterazine h (final concentration 5 μM; NanoLight Technologies, Pinetop, AZ, United States) was added to each well and incubated for 5 min. Forskolin was added (final concentration 5 μM) and incubated for 6 min (allowing enough time for the induced cAMP increase to plateau), prior to vehicle/drug addition. All drugs and reagents were prepared in HBSS supplemented with 1 mg mL^-1 BSA. SR 144528 was a generous gift from Roche (Basel, Switzerland).
Assays were carried out in technical duplicate. Emissions were detected at 460 nm (Rluc) and 535 nm (YFP) with either a LUMIstar® Omega luminometer (BMG Labtech, Ortenberg, Germany) or CLARIOstar® (BMG Labtech). BRET ratios (535 nm emissions/460 nm emissions, where an increase in ratio corresponds to a decrease in cAMP) were normalised to pre-forskolin reads (i.e., with coelenterazine h present) to remove any variability present prior to addition of forskolin and drug/vehicle. A Lowess curve (GraphPad Prism) was fitted to individual technical replicates within an assay so that cAMP signalling data could be extrapolated from any time point as opposed to only those that were empirically measured (typically every 30–60 s). Data were normalised to matched vehicle (0%) and forskolin (100%) treatments, allowing compilation of data from independent experiments.

hCB2 [4] = molecular target: T2, hCB2; assay: hCB2 internalisation assay (immunocytochemistry of surface receptor), HEK Flp-in hCB2 cells; type: cell-based; parameters: Emax: dose or concentration left out as unconfirmed; conditions: for logR [log(τ/KA)] (±SEM) Internalisation: operational model transduction ratio
hCB2 [5] = molecular target: T2, hCB2; assay: pERK AlphaLISA assay, HEK Flp-in hCB2 cells; type: cell-based; conditions: for logR [log(τ/KA)] (±SEM) pERK: operational model transduction ratio; for Time of maximal pERK response: time course experiment; for EC50: 4 min stimulation, 14 approximate (low potency), read-out: pERK (4 min) pEC50 (±SEM) (converted)
[6] = 10 μM compound, displacement of 0.5 nM [3H]-CP 55,940
[7] = 5 min post-drug, 5 μM forskolin

T1 sequence (P21554 whole entry): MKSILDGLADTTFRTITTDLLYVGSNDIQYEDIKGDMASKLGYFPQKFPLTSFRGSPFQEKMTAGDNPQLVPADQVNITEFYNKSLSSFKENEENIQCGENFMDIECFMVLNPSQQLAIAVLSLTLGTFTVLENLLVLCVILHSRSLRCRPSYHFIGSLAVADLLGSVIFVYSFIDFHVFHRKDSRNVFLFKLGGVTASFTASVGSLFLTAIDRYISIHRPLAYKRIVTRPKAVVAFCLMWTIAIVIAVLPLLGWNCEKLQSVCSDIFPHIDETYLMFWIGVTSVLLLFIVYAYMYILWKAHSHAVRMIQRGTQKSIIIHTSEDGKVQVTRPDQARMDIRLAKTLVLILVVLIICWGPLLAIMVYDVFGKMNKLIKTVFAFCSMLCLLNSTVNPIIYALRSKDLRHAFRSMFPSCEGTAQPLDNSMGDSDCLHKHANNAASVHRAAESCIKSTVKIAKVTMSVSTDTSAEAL
T2 sequence (P34972 whole entry): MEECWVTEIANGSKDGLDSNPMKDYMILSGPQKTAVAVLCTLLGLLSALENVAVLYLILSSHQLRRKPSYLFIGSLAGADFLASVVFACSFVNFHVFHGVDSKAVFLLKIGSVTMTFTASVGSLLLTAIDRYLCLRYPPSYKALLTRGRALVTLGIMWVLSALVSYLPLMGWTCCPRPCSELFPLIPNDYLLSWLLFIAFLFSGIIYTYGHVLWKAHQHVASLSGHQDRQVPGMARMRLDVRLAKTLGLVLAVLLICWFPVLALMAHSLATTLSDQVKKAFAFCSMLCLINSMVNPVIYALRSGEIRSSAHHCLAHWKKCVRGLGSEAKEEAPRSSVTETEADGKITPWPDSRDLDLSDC

## CCCCCCC(C)(C)c1ccc([C@@H]2C[C@H](O)CC[C@H]2CCCO)c(O)c1 [CP 55,940, reference compound]
hCB1
  CB1 binding extent at 10 μM (%) (±SEM): 100.0 (0.0) %
hCB2 [1]; [6]
  CB2 binding extent at 10 μM (%) (±SEM): 100.0 (0.0) %
HEK Flp-in wt cells
  Non-hCB2-mediated effects on cAMP (in words): least pronounced non-hCB2 signalling profile
hCB2 [2]; relative to CP 55,940
  Internalisation – pERK Bias factor: 1.0
  cAMP – internalisation Bias factor: 1.0
  cAMP – pERK Bias factor: 1.0
hCB2 [2]
  Internalisation – pERK ΔΔlogR (±SEM): –0.02 (0.11)
  cAMP – internalisation ΔΔlogR (±SEM): 0.01 (0.10)
  cAMP – pERK ΔΔlogR (±SEM): 0.00 (0.04)
hCB2 [3]
  logR [log(τ/KA)] (±SEM) cAMP: 8.52 (0.02)
hCB2 [3]; pEC50 versus pKd
  cAMP potency lower than binding affinity: ~0.4 log units
hCB2 [3]; read-out: cAMP (5 min) Emax (±SEM)
  Emax: -41.7%
hCB2 [4]; 1 h stimulation
  Starting surface hCB2 internalised: ~66%
hCB2 [4]
  logR [log(τ/KA)] (±SEM) Internalisation: 8.76 (0.1)
hCB2 [4]; read-out: Internalisation (1 h) Emax (±SEM)
  Emax: -65.1%
hCB2 [5]
  pERK potency lower than that for cAMP: approximately 0.5 log unit
  logR [log(τ/KA)] (±SEM) pERK: 8.05 (0.03)
  Time of maximal pERK response: 4 min
hCB2 [5]; EC50 versus Kd
  pERK potency lower than affinity: ~10 fold

## CCOc1nc(Cl)nc(NC2CCCC2)n1 [Compound 1, 4-Chloro-N-cyclopentyl-6-ethoxy-1,3,5-triazin-2-amine]
hCB2 [1]
  hCB2 displacement of [3H]-CP 55,940 in 10 μM screen (in words): failed to displace, or barely displaced
hCB2 [1]; [6]
  inhibition at 10 µM: -8.1%

## CCOc1nc(NC2CCCC2)nc(N2CCNCC2)n1 [Compound 2, N-cyclopentyl-4-ethoxy-6-(piperazin-1-yl)-1,3,5-triazin-2-amine]
hCB2 [1]
  hCB2 displacement of [3H]-CP 55,940 in 10 μM screen (in words): failed to displace, or barely displaced
hCB2 [1]; [6]
  inhibition at 10 µM: 5.8%

## CCOc1nc(NC2CCCC2)nc(N2CCN(CCCCCCN)CC2)n1 [Compound 5, 4-(4-(6-Aminohexyl)Piperazin-1-yl)-N-Cyclopentyl-6-Ethoxy-1,3,5-Triazin-2-Amine]
hCB2 [1]
  hCB2 displacement of [3H]-CP 55,940 in 10 μM screen (in words): failed to displace, or barely displaced
hCB2 [1]; [6]
  inhibition at 10 µM: 16.6%

## CCOc1nc(NC2CCCC2)nc(N2CCN(CCOCCOCCN)CC2)n1 [Compound 6, 4-(4-(2-(2-(2-Aminoethoxy)Ethoxy)Ethyl)Piperazin-1-yl)-N-Cyclopentyl-6-Ethoxy-1,3,5-Triazin-2-Amine]
hCB2 [1]
  hCB2 displacement of [3H]-CP 55,940 in 10 μM screen (in words): failed to displace, or barely displaced
hCB2 [1]; [6]
  inhibition at 10 µM: 15.6%

## CCOc1nc(NC23CC4CC(CC(C4)C2)C3)nc(N2CCN(CCCCCCNC(=O)OC(C)(C)C)CC2)n1 [Compound 9, tert-Butyl N-(6(4-(4-(Adamantan-1-yl)Amino)-6-Ethoxy-1,3,5-Triazin-2-yl)Piperazin-1-yl)Hexyl) Carbamate]
hCB2 [1]
  hCB2 displacement of [3H]-CP 55,940 in 10 μM screen (in words): moderate binders
hCB2 [1]; [6]
  inhibition at 10 µM: 51.9%

## CCOc1nc(NC23CC4CC(CC(C4)C2)C3)nc(N2CCN(CCOCCOCCNC(=O)OC(C)(C)C)CC2)n1 [Compound 10, tert-Butyl N-(2-(2-(2-(4-(4-((Adamantan-1-yl)Amino)-6-Ethoxy-1,3,5-Triazin-2-yl)Piperazin-1-yl)Ethoxy) Ethoxy)Ethyl)Carbamate]
hCB1
  CB1 binding extent at 10 μM (%) (±SEM): 16.7 (7.8) %
  CB2 selectivity over CB1 (in words): likely also CB2-selective
hCB2 [1]; [6]
  inhibition at 10 µM: 91.8%
hCB2 [1]
  Reduction in hCB2 binding affinity compared to 15: 2–3 log units
  Ki: 0.661 µM
HEK Flp-in wt cells; HEK Flp-in wt versus HEK Flp-in hCB2
  Non-hCB2-mediated cAMP effects: fold less potent than cAMP inhibition in hCB2-expressing cells: ~23 fold
hCB2 [2]; relative to CP 55,940
  Internalisation – pERK Bias factor: 2.0
  cAMP – internalisation Bias factor: 1.2
  cAMP – pERK Bias factor: 2.4
  Between-pathway signalling bias (in words): did not demonstrate any indication of between-pathway bias
hCB2 [2]
  Internalisation – pERK ΔΔlogR (±SEM): 0.31 (0.13)
  cAMP – internalisation ΔΔlogR (±SEM): 0.07 (0.16)
  cAMP – pERK ΔΔlogR (±SEM): 0.37 (0.10)
hCB2 [3]; 5 μM forskolin
  Behaviour in cAMP pathway (in words): partial agonists
hCB2 [3]; [7]
  EC50: 0.105 µM
hCB2 [3]; 5 min post-drug, 5 μM forskolin, change relative to forskolin alone (100%), vehicle 0%, 10 and 14 approximate
  cAMP (5 min) Emax (±SEM): –33.0 (0.9)^Δ %
hCB2 [3]
  logR [log(τ/KA)] (±SEM) cAMP: 6.90 (0.10)
hCB2 [4]; 1 h stimulation
  EC50: 0.0891 µM
hCB2 [4]
  logR [log(τ/KA)] (±SEM) Internalisation: 7.09 (0.10)
hCB2 [5]; 4 min
  Behaviour in pERK pathway (in words): equivalent efficacies to CP 55,940
hCB2 [5]; 4 min, response above vehicle, normalised to U0126 (0%) and PMA (100%), for 14 efficacy at 10 μM, read-out: pERK (4 min) Emax (±SEM)
  Emax: 10.2%
hCB2 [5]
  EC50: 1.07 µM
  logR [log(τ/KA)] (±SEM) pERK: 6.06 (0.02)
  Time of maximal pERK response: 4 min

## CCOc1nc(NC23CC4CC(CC(C4)C2)C3)nc(N2CCN(CCN)CC2)n1 [Compound 11, N-(Adamantan-1-yl)-4-(4-(2-Aminoethyl)Piperazin-1-yl)-6-Ethoxy-1,3,5-Triazin-2-Amine]
hCB2 [1]
  hCB2 displacement of [3H]-CP 55,940 in 10 μM screen (in words): moderate binders
hCB2 [1]; [6]
  inhibition at 10 µM: 40.1%

## CCOc1nc(NC23CC4CC(CC(C4)C2)C3)nc(N2CCN(CCCCCCN)CC2)n1 [Compound 12, N-(Adamantan-1-yl)-4-(4-(6-Aminohexyl)Piperazin-1-yl)-6-Ethoxy-1,3,5-Triazin-2-Amine]
hCB2 [1]
  hCB2 displacement of [3H]-CP 55,940 in 10 μM screen (in words): moderate binders
hCB2 [1]; [6]
  inhibition at 10 µM: 43.5%

## CCOc1nc(NC23CC4CC(CC(C4)C2)C3)nc(N2CCN(CCOCCOCCN)CC2)n1 [Compound 13, N-(Adamantan-1-yl)-4-(4-(2-(2-(2-Aminoethoxy) Ethoxy)Ethyl)Piperazin-1-yl)-6-Ethoxy-1,3,5-Triazin-2-Amine]
hCB1
  CB1 binding extent at 10 μM (%) (±SEM): 29.6 (7.6) %
  CB2 selectivity over CB1 (in words): likely also CB2-selective
hCB2 [1]; [6]
  inhibition at 10 µM: 81.1%
hCB2 [1]
  Reduction in hCB2 binding affinity compared to 15: 2–3 log units
  Ki: 1.82 µM
HEK Flp-in wt cells
  Non-hCB2-mediated effects on cAMP (in words): did not exhibit any measurable non-hCB2-mediated effects
hCB2 [3]; 5 μM forskolin
  Behaviour in cAMP pathway (in words): unconventional transient inverse agonist
  Time to maximum cAMP effect after drug addition: ~4 min
  Time to return to cAMP concentration induced by forskolin alone: 10 to 15 min
hCB2 [3]; [7]
  EC50: 0.794 µM
hCB2 [3]; PTX 100 ng mL-1 pre-treatment 16–20 h
  PTX sensitivity of cAMP signal (in words): completely PTX-sensitive
hCB2 [4]; 1 h stimulation
  Behaviour in internalisation pathway (in words): neutral antagonist
  Internalisation (1 h) pEC50 (±SEM): Not Measurable
hCB2 [4]; read-out: Internalisation (1 h) Emax (±SEM), 1 h stimulation, change in surface hCB2 relative to vehicle-treated (100%), for 13 efficacy at 10 μM
  Emax at 10 µM: 6.2%
hCB2 [5]; 4 min
  Behaviour in pERK pathway (in words): weak partial agonists
hCB2 [5]
  EC50: 0.537 µM
  Time of maximal pERK response: 4 min

## SR 144528 [reference compound]
HEK Flp-in wt cells
  Non-hCB2-mediated effects on cAMP (in words): did not exhibit any measurable non-hCB2-mediated effects
hCB2 [3]
  PTX sensitivity of cAMP signal (in words): PTX-sensitive
  Time to maximum cAMP effect after drug addition: approximately 6 min
  cAMP (5 min) Emax (±SEM): 55.4%
